In US20240148744A1 (Celgene Corporation, priority 2021, published 2024) one finds IC50 data, which are given here for 41 molecules.

One experiment has as its system Dirofilaria immitis. Kind of experiment: Heartworm screen Dirofilaria immitis (stage DiMF/DiL4 not specified in the tables). It counts as cell-based. To be noted: read-out: D. immitis Activity class.
Experiment [1] relates to Onchocerca gutturosa adult male worms. The experiment in a line: Onchocerca gutturosa in vitro screening model: adult worm motility score and MTT/formazan viability. In kind it is cell-based. To be noted: read-out: O. gutt Activity class.

Each structure is given as a SMILES string.

For the molecule `CCn1ccnc1S(=O)(=O)Nc1ccc(F)c2cccnc12` [Compound 108, 1-ethyl-N-(5-fluoroquinolin-8-yl)-1H-imidazole-2-sulfonamide], the IC50 in the experiment on Dirofilaria immitis was under 200 nM; in experiment [1], 500 to 5000 nM.

Consider `CCn1ccnc1S(=O)(=O)Nc1cccc2cc(F)cnc12` [Compound 109, 1-ethyl-N-(3-fluoroquinolin-8-yl)-1H-imidazole-2-sulfonamide], for which the values for the IC50 (in the experiment with Dirofilaria immitis; in experiment [1]) were 200 to 500 nM and under 200 nM, respectively.

Take `CCn1ccnc1S(=O)(=O)Nc1ccc(Cl)c2cccnc12` [Compound 110, N-(5-chloro-quinolin-8-yl)-1-ethyl-1H-imidazole-2-sulfonamide]: the IC50 (in the experiment with Dirofilaria immitis; in experiment [1]) was 200 to 500 nM in each case.

As to `Cc1ccc(S(=O)(=O)Nc2c(C)ccc3cccnc23)nc1` [Compound 112, 5-methyl-N-(7-methyl-quinolin-8-yl)-pyridine-2-sulfonamide], the IC50 in the experiment with Dirofilaria immitis is 500 to 5000 nM; in experiment [1] it was 200 to 500 nM.

For the molecule `Cc1ccc(S(=O)(=O)Nc2cccc3cc(C)cnc23)nc1` [Compound 113, 5-methyl-N-(3-methyl-quinolin-8-yl)-pyridine-2-sulfonamide], the IC50 with Dirofilaria immitis was 200 to 500 nM; in experiment [1] it was under 200 nM.

In the case of `Cc1ccc(S(=O)(=O)Nc2c(Cl)ccc3cccnc23)nc1` [Compound 114, N-(7-chloro-quinolin-8-yl)-5-methylpyr-idine-2-sulfon-amide], the IC50 in the experiment on Dirofilaria immitis was 500 to 5000 nM; in experiment [1], under 200 nM.

`CCn1ccnc1S(=O)(=O)Nc1cccc2cc(Cl)cnc12` [Compound 116, N-(3-chloro-quinolin-8-yl)-1-ethyl-1H-imidazole-2-sulfonamide]: the IC50 (in the experiment on Dirofilaria immitis; in experiment [1]) was 200 to 500 nM in each case.

Take `CCn1ccnc1S(=O)(=O)Nc1cc(OC)cc2cccnc12` [Compound 117, 1-ethyl-N-(6-methoxyquin-olin-8-yl)-1H-imidazole-2-sulfonamide]: the values for the IC50 (in the experiment with Dirofilaria immitis; in experiment [1]) were 200 to 500 nM and 500 to 5000 nM, respectively.

With `Cc1ccc(S(=O)(=O)Nc2ccc(Cl)c3cccnc23)nc1` [Compound 118, N-(5-chloro-quinolin-8-yl)-5-methylpyr-idine-2-sulfon-amide], the IC50 in the experiment on Dirofilaria immitis was 500 to 5000 nM; in experiment [1], under 200 nM.

With `Cc1ccc(S(=O)(=O)Nc2cccc3c(Cl)ccnc23)nc1` [Compound 119, N-(4-chloro-quinolin-8-yl)-5-methylpyr-idine-2-sulfon-amide], the values for the IC50 (with Dirofilaria immitis; in experiment [1]) were 500 to 5000 nM and under 200 nM, respectively.

Turning to `Cc1ccc(S(=O)(=O)Nc2cccc3cc(Cl)cnc23)nc1` [Compound 120, N-(3-chloro-quinolin-8-yl)-5-methylpyr-idine-2-sulfon-amide], the IC50 (with Dirofilaria immitis; in experiment [1]) was 200 to 500 nM throughout.

Regarding `COc1cnc2c(NS(=O)(=O)c3ccc(C)cn3)cccc2c1` [Compound 121, N-(3-methoxy-quinolin-8-yl)-5-methylpyr-idine-2-sulfon-amide], the IC50 is 500 to 5000 nM with Dirofilaria immitis and under 200 nM in experiment [1].

With `CCn1ccnc1S(=O)(=O)Nc1cccc2c(OC)ccnc12` [Compound 122, 1-ethyl-N-(4-methoxyquin-olin-8-yl)-1H-imidazole-2-sulfonamide], the IC50 with Dirofilaria immitis is 500 to 5000 nM; in experiment [1] it was under 200 nM.

As to `COc1ccc(NS(=O)(=O)c2ccc(C)cn2)c2ncccc12` [Compound 123, N-(5-methoxy-quinolin-8-yl)-5-methylpyr-idine-2-sulfon-amide], the figures for the IC50 (in the experiment with Dirofilaria immitis; in experiment [1]) were 500 to 5000 nM and under 200 nM, respectively.

Regarding `COc1ccnc2c(NS(=O)(=O)c3ccc(C)cn3)cccc12` [Compound 124, N-(4-methoxy-quinolin-8-yl)-5-methylpyr-idine-2-sulfon-amide], the figures for the IC50 (in the experiment on Dirofilaria immitis; in experiment [1]) were 500 to 5000 nM and under 200 nM, respectively.

Take `COc1cc(NS(=O)(=O)c2ccc(C)cn2)c2ncccc2c1` [Compound 125, N-(6-methoxy-quinolin-8-yl)-5-methylpyr-idine-2-sulfon-amide]: the IC50 is 500 to 5000 nM in the experiment with Dirofilaria immitis and under 200 nM in experiment [1].

Turning to `Cc1ccc(S(=O)(=O)Nc2ccc(F)c3cccnc23)nc1` [Compound 126, N-(5-fluoro-quinolin-8-yl)-5-methylpyr-idine-2-sulfon-amide], the IC50 lay in the range of 200 to 500 nM in the experiment on Dirofilaria immitis and 500 to 5000 nM in experiment [1].

With `Cc1ccc(S(=O)(=O)Nc2cc(C)cc3cccnc23)nc1` [Compound 127, 5-methyl-N-(6-methylquin-olin-8-yl)pyr-idine-2-sulfon-amide], the IC50 in the experiment with Dirofilaria immitis is 200 to 500 nM; in experiment [1], under 200 nM.

`N#CCc1cccc(S(=O)(=O)Nc2cccc3cccnc23)n1` [Compound 150, 6-(cyanomethyl)-N-(quinolin-8-yl)pyridine-2-sulfonamide]: the IC50 is 500 to 5000 nM in the experiment with Dirofilaria immitis and 200 to 500 nM in experiment [1].

In the case of `Nc1ncccc1S(=O)(=O)Nc1cccc2cccnc12` [Compound 151, 2-amino-N-(quinolin-8-yl)pyridine-3-sulfonamide], the IC50 (in the experiment on Dirofilaria immitis; in experiment [1]) was 500 to 5000 nM in each case.

For `O=S(=O)(Nc1cccc2cccnc12)c1ccnc(C2CC2)c1` [Compound 152], the IC50 was 500 to 5000 nM with Dirofilaria immitis and under 200 nM in experiment [1].

For the molecule `O=S(=O)(Nc1cccc2cccnc12)c1ccc(C(F)F)nc1` [Compound 153, 6-(difluoromethyl)-N-(quinolin-8-yl)pyridine-3-sulfonamide], the IC50 (with Dirofilaria immitis; in experiment [1]) was 500 to 5000 nM each time.

Take `Cc1cc(S(=O)(=O)Nc2cccc3cccnc23)ccn1` [Compound 154, 2-methyl-N-(quinolin-8-yl)pyridine-4-sulfonamide]: the IC50 in the experiment with Dirofilaria immitis was 500 to 5000 nM; in experiment [1], 200 to 500 nM.

In the case of `Cc1ncccc1S(=O)(=O)Nc1cccc2cccnc12` [Compound 155, 2-methyl-N-(quinolin-8-yl)pyridine-3-sulfonamide], the IC50 (with Dirofilaria immitis; in experiment [1]) was 500 to 5000 nM in each case.

Regarding `O=S(=O)(Nc1cccc2cccnc12)c1cccc(C(F)(F)F)n1` [Compound 156, N-(quinolin-8-yl)-6-(trifluoromethyl) pyridine-2-sulfonamide], the values for the IC50 (with Dirofilaria immitis; in experiment [1]) were 500 to 5000 nM and under 200 nM, respectively.

For `Cc1ccc(S(=O)(=O)Nc2cccc3cccnc23)cn1` [Compound 157, 6-methyl-N-(quinolin-8-yl)pyridine-3-sulfonamide], the IC50 (in the experiment with Dirofilaria immitis; in experiment [1]) was 500 to 5000 nM throughout.

`O=S(=O)(Nc1cccc2cccnc12)c1ccnc(C(F)(F)F)c1` [Compound 158, N-(quinolin-8-yl)-2-(trifluoromethyl) pyridine-4-sulfonamide]: the results for the IC50 (with Dirofilaria immitis; in experiment [1]) were 500 to 5000 nM and 200 to 500 nM, respectively.

Take `CC(C)(C)c1ccc(S(=O)(=O)Nc2cccc3cccnc23)cn1` [Compound 159, 6-tert-butyl-N-(quinolin-8-yl)pyridine-3-sulfonamide]: the values for the IC50 (in the experiment with Dirofilaria immitis; in experiment [1]) were 200 to 500 nM and under 200 nM, respectively.

Turning to `O=S(=O)(Nc1cccc2cccnc12)c1cc(F)ccn1` [Compound 160, 4-fluoro-N-(quinolin-8-yl)pyridine-2-sulfonamide], the figures for the IC50 (in the experiment with Dirofilaria immitis; in experiment [1]) were 500 to 5000 nM and under 200 nM, respectively.

With `Cc1cc(C#N)cc(S(=O)(=O)Nc2cccc3cccnc23)n1` [Compound 167, 4-cyano-6-methyl-N-(quinolin-8-yl)pyridine-2-sulfonamide], the IC50 lay within 500 to 5000 nM in the experiment with Dirofilaria immitis and 200 to 500 nM in experiment [1].

As for `O=S(=O)(Nc1cccc2cccnc12)c1nccn1C1(C(F)(F)F)CC1` [Compound 168, N-(quinolin-8-yl)-1-(1-(trifluoromethyl)cyclopropyl)-1H-imidazole-2-sulfonamide], the IC50 with Dirofilaria immitis is 200 to 500 nM; in experiment [1], under 200 nM.

With `N#Cc1nc(Cl)ccc1S(=O)(=O)Nc1cccc2cccnc12` [Compound 169, 6-chloro-2-cyano-N-(quinolin-8-yl)pyridine-3-sulfonamide], the IC50 (in the experiment on Dirofilaria immitis; in experiment [1]) was 500 to 5000 nM each time.

For `O=S(=O)(Nc1cccc2cccnc12)c1nccn1C1CC1C(F)(F)F` (stereo not shown) [Compound 171, N-(quinolin-8-yl)-1-(2-(trifluoromethyl)cyclopropyl)-1H-imidazole-2-sulfonamide], the IC50 was 200 to 500 nM in the experiment with Dirofilaria immitis and under 200 nM in experiment [1].

Turning to `O=S(=O)(Nc1cccc2cccnc12)c1nccn1C1CC1(F)F` (stereo not shown) [Compound 174, 1-(2,2-difluorocyclo-propyl)-N-(quinolin-8-yl)-1H-imidazole-2-sulfonamide], the figures for the IC50 (in the experiment on Dirofilaria immitis; in experiment [1]) were 200 to 500 nM and under 200 nM, respectively.

For the molecule `O=S(=O)(Nc1cccc2cccnc12)c1ccc(Cl)nc1C(F)(F)F` [Compound 176, 6-chloro-N-(quinolin-8-yl)-2-(trifluoromethyl) pyridine-3-sulfonamide], the IC50 lay in the range of 500 to 5000 nM in the experiment with Dirofilaria immitis and 200 to 500 nM in experiment [1].

For `Cc1cc(C)c(S(=O)(=O)Nc2cccc3cccnc23)c(Cl)n1` [Compound 177, 2-chloro-4,6-dimethyl-N-(quinolin-8-yl)pyridine-3-sulfonamide], the IC50 (in the experiment with Dirofilaria immitis; in experiment [1]) was 500 to 5000 nM each time.

Consider `N#Cc1ccc(-c2cccc(S(=O)(=O)Nc3cccc4cccnc34)n2)cc1` [Compound 178, 6-(4-cyanophenyl)-N-(quinolin-8-yl)pyridine-2-sulfonamide], for which the IC50 with Dirofilaria immitis was 500 to 5000 nM; in experiment [1], under 200 nM.

Take `Cc1nc(Cl)ccc1S(=O)(=O)Nc1cccc2cccnc12` [Compound 179, 6-chloro-2-methyl-N-(quinolin-8-yl)pyridine-3-sulfonamide]: the figures for the IC50 (in the experiment on Dirofilaria immitis; in experiment [1]) were 500 to 5000 nM and under 200 nM, respectively.

Turning to `Cc1ncc(S(=O)(=O)Nc2cccc3cccnc23)cc1Cl` [Compound 180, 5-chloro-6-methyl-N-(quinolin-8-yl)pyridine-3-sulfonamide], the IC50 (in the experiment on Dirofilaria immitis; in experiment [1]) was 500 to 5000 nM in each case.

`Cc1ncc(Cl)cc1S(=O)(=O)Nc1cccc2cccnc12` [Compound 181, 5-chloro-2-methyl-N-(quinolin-8-yl)pyridine-3-sulfonamide]: the IC50 lay within 200 to 500 nM in the experiment on Dirofilaria immitis and 500 to 5000 nM in experiment [1].

Take `O=S(=O)(Nc1cccc2cccnc12)c1ccc(-c2ccc(F)cc2)nc1` [Compound 182, 6-(4-fluorophenyl)-N-(quinolin-8-yl)pyridine-3-sulfonamide]: the values for the IC50 (with Dirofilaria immitis; in experiment [1]) were 500 to 5000 nM and under 200 nM, respectively.
